Laboratory results: patent publication US20260295053A1, “COMPOUNDS FOR DEGRADATION AND INHIBITION OF KRAS (G12D) PROTEIN” (Shenzhen Ionova Life Science Co., Ltd., priority 2023, published 2026)

Key:
KRAS (G12D) = biological target: T1, KRAS (G12D) (Homo sapiens, UniProt P01116, G12D); assay: KRAS (G12D) cellular degradation assay in AsPC-1 cells; format: cell-based; conditions: 24 hours, antibody fluorescence (Odyssey CLX), DC50 half-maximal degradation concentration
T1 construct: in-cell western with KRAS G12D antibody after 24 h
In short: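 Read-outs were KRAS G12D immunofluorescence against β-actin after 24 h (DC50) and CellTiter Glo luminescence after 6 days (IC50). Compounds were titrated 1:3 from […] to 1.5 nM final on AsPC-1 cells at 37 °C, 5% CO2.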

AsPC-1 cells = assay: AsPC-1 cell proliferation assay (CellTiter Glo); format: cell-based; conditions: Homo sapiens, ASPC1, 144 h, 6 days
Experimental: ASPC-1 and PK-59 cellular assays ASPC-1 (ATCC cat. CRL-1682) and PK-59 (Nanjing Cobioer, Cat. No. CBP61184) were used in KRAS cellular degradation, pERK inhibition and proliferation assays. The two cell lines were maintained following vendor's instructions. For monitoring KRAS (G12D) cellular degradation and pERK biomarker inhibition, cells were seeded into a 96-well plate with 22,000 and 16,000 cells/well for assays in ASPC-1 and PK-59, respectively. Cells were incubated at 37° C. with 5% CO2 and cell density was monitored until ^~90% confluency was reached. Compounds were serially diluted at a 1:3 ratio and dispensed into each well at final concentrations ranging from […] to 1.5 nM. After incubation for 24 hours, the culture media were removed and the cells were subjected to fixation, permeabilization and blocking (Intercept blocking buffer, Li-cor). For KRAS (G12D) degradation, the cells were treated with primary antibody (KRAS G12D antibody, Cell Signaling Technologies, Cat. No. CST14429) and for β-actin (β-actin mAb, Beyotime, Cat. No. AF-5001), and followed by secondary antibodies, Anti-rabbit IgG (H+L) (DyLight™ 800 4×PEG Conjugate) or IRDye® 680RD Goat anti-Mouse IgG. For pERK inhibition assay, cells were treated with primary antibodies for pERK (Phospho-p44/42 MAPK (Erk1/2) (Thr202/Tyr204) (D13.14.4E) XP® Rabbit mAb, Cell Signaling Technologies, Cat. No. CST-4370) and β-actin (β-actin mAb, Beyotime, Cat. No. AF-5001), and followed by secondary antibodies, Anti-rabbit IgG (H+L) (DyLight™ 800 4×PEG Conjugate) or IRDye® 680RD Goat anti-Mouse IgG. Fluorescence signals were read on Odyssey CLX instrument. For cell proliferation assays, cells were seeded into a 96-well plate at 3,500 and 800 cells/well for assays in ASPC-1 and PK-59, respectively. Cells were incubated at 37° C. with 5% CO2 for overnight. Compounds were serially diluted at a 1:3 ratio and dispensed into each well at final concentrations ranging from […] to 1.5 nM. After incubation for 6 days, cell viability reagent (CellTiter Glo, Promega, Cat. No. G7573) was added to each well and luminescence was recorded on Molecular Devices Spectramax iD3 instrument. IC50, half-maximal inhibitory concentration for pERK inhibition or cell proliferation, and DC50, half-maximal degradation concentration in KRAS (G12D) cellular degradation were determined by fitting the corresponding dose response curves using GraphPad Prism software.
Wherein “A” means the value <10 nM, “B” means 10 nM<the value <100 nM, “C” means 100 nM<the value <1000 nM, and “D” means the value >1000 nM, in which, the value means the value of DC50 or IC50. NT means not tested.

T1 sequence (P01116 1-188 isoform P01116-2 G12D): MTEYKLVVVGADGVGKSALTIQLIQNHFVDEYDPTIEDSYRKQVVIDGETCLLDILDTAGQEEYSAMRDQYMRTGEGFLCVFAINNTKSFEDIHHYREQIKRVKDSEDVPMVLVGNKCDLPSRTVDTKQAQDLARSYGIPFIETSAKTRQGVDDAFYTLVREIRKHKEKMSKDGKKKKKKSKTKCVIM

DC50 (KRAS (G12D))	IC50 (AsPC-1 cells)	SMILES
10 to 100 nM	< 10 nM	CCn1nccc1-c1ccc([C@H](CO)NC(=O)[C@@H]2C[C@@H](O)CN2C(=O)[C@H](C(C)C)n2cc(-c3ccc(COc4c(-c5c(C)c(F)cc6[nH]ncc56)c(C5CC5(F)F)cc5c(N6C[C@@H]7C[C@H]6CN7)nc(OC[C@H](C)OC)nc45)cc3)nn2)cc1 (stereo partly drawn) [Example 52, (2S,4R)-1-((2S)-2-(4-(4-(((4-((1S,4S)-2,5-diazabicyclo[2.2.1]heptan-2-yl)-6-(2,2-difluorocyclopropyl)-7-(6-fluoro-5-methyl-1H-indazol-4-yl)-2-((S)-2-methoxypropoxy)quinazolin-8-yl)oxy)methyl)phenyl)-1H-1,2,3-triazol-1-yl)-3-methylbutanoyl)-N—((R)-1-(4-(1-ethyl-1H-pyrazol-5-yl)phenyl)-2-hydroxyethyl)-4-hydroxypyrrolidine-2-carboxamide]
10 to 100 nM	< 10 nM	COC1CCC(Oc2nc(N3C[C@@H]4C[C@H]3CN4)c3cc(C4CC4)c(-c4c(C)c(F)c(F)c5[nH]ncc45)c(OCc4ccc(-c5cn([C@H](C(=O)N6C[C@H](O)C[C@H]6C(=O)N[C@@H](CO)c6ccc(-c7scnc7C)cc6)C(C)C)nn5)cc4)c3n2)CC1 (stereo partly drawn) [Example 103, (2S,4R)-1-((2S)-2-(4-(4-(((4-((1S,4S)-2,5-diazabicyclo[2.2.1]heptan-2-yl)-6-cyclopropyl-7-(6,7-difluoro-5-methyl-1H-indazol-4-yl)-2-(((1s,4R)-4-methoxycyclohexyl)oxy)quinazolin-8-yl)oxy)methyl)phenyl)-1H-1,2,3-triazol-1-yl)-3-methylbutanoyl)-4-hydroxy-N—((R)-2-hydroxy-1-(4-(4-methylthiazol-5-yl)phenyl)ethyl)pyrrolidine-2-carboxamide]
< 10 nM	< 10 nM	CCn1nccc1-c1ccc([C@@H](NC(=O)[C@@H]2C[C@@H](O)CN2C(=O)[C@H](C(C)C)n2cc(-c3ccc(COc4c(-c5c(C)c(F)cc6[nH]ncc56)c(C5CC5)cc5c(N(C)[C@H]6CCNC6)nc(OC[C@H](C)OC)nc45)cc3)nn2)[C@H](C)O)c2c1CC2 [Example 149, (2S,4R)-1-((2S)-2-(4-(4-(((6-cyclopropyl-7-(6-fluoro-5-methyl-1H-indazol-4-yl)-2-((S)-2-methoxypropoxy)-4-(methyl((S)-pyrrolidin-3-yl)amino)quinazolin-8-yl)oxy)methyl)phenyl)-1H-1,2,3-triazol-1-yl)-3-methylbutanoyl)-N-((1R,2S)-1-(5-(1-ethyl-1H-pyrazol-5-yl)bicyclo[4.2.0]octa-1(6),2,4-trien-2-yl)-2-hydroxypropyl)-4-hydroxypyrrolidine-2-carboxamide]
10 to 100 nM	< 10 nM	CO[C@@H](C)COc1nc(N2C[C@@H]3C[C@H]2CN3)c2cc(C3CC3)c(-c3c(C)c(F)cc4[nH]ncc34)c(OCc3ccc(-c4cn([C@H](C(=O)N5C[C@H](O)C[C@H]5C(=O)N[C@H](C#Cc5cccc(F)c5Cl)CO)C(C)C)nn4)cc3)c2n1 [Example 98, (2S,4R)-1-((2S)-2-(4-(4-(((4-((1S,4S)-2,5-diazabicyclo[2.2.1]heptan-2-yl)-6-cyclopropyl-7-(6-fluoro-5-methyl-1H-indazol-4-yl)-2-((S)-2-methoxypropoxy)quinazolin-8-yl)oxy)methyl)phenyl)-1H-1,2,3-triazol-1-yl)-3-methylbutanoyl)-N—((R)-4-(2-chloro-3-fluorophenyl)-1-hydroxybut-3-yn-2-yl)-4-hydroxypyrrolidine-2-carboxamide]
< 10 nM	< 10 nM	CCn1nccc1-c1ccc([C@H](CO)NC(=O)[C@@H]2C[C@@H](O)CN2C(=O)[C@H](C(C)C)n2cc(-c3ccc(COc4c(-c5c(C)c(F)cc6[nH]ncc56)c(C(F)(F)F)cc5c(N6C[C@@H]7C[C@H]6CN7)nc(OC[C@H](C)OC)nc45)cc3)nn2)cc1 [Example 30, (2S,4R)-1-((2S)-2-(4-(4-(((4-((1S,4S)-2,5-diazabicyclo[2.2.1]heptan-2-yl)-7-(6-fluoro-5-methyl-1H-indazol-4-yl)-2-((S)-2-methoxypropoxy)-6-(trifluoromethyl)quinazolin-8-yl)oxy)methyl)phenyl)-1H-1,2,3-triazol-1-yl)-3-methylbutanoyl)-N—((R)-1-(4-(1-ethyl-1H-pyrazol-5-yl)phenyl)-2-hydroxyethyl)-4-hydroxypyrrolidine-2-carboxamide]
< 10 nM	< 10 nM	CCn1nccc1-c1ccc([C@H](CO)NC(=O)[C@@H]2C[C@@H](O)CN2C(=O)[C@H](C(C)C)n2cc(-c3ccc(COc4c(-c5c(C)c(F)cc6[nH]ncc56)c(C5CC5)cc5c(N6C[C@@H]7C[C@H]6CN7)nc(OC(COC)C(F)F)nc45)cc3)nn2)cc1 (stereo partly drawn) [Example 83, (2S,4R)-1-((2S)-2-(4-(4-(((4-((1S,4S)-2,5-diazabicyclo[2.2.1]heptan-2-yl)-6-cyclopropyl-2-((1,1-difluoro-3-methoxypropan-2-yl)oxy)-7-(6-fluoro-5-methyl-1H-indazol-4-yl)quinazolin-8-yl)oxy)methyl)phenyl)-1H-1,2,3-triazol-1-yl)-3-methylbutanoyl)-N—((R)-1-(4-(1-ethyl-1H-pyrazol-5-yl)phenyl)-2-hydroxyethyl)-4-hydroxypyrrolidine-2-carboxamide]

SMILES	DC50 (KRAS (G12D))	IC50 (AsPC-1 cells)
CCn1nccc1-c1ccc([C@@H](NC(=O)[C@@H]2C[C@@H](O)CN2C(=O)[C@H](C(C)C)n2cc(-c3ccc(COc4c(-c5c(C)c(F)cc6[nH]ncc56)c(C5CCC5)cc5c(N6C[C@@H]7C[C@H]6CN7)nc(O[C@H]6C[C@H](OC)C6)nc45)cc3)nn2)[C@H](C)O)cc1 [Example 136, (2S,4R)-1-((2S)-2-(4-(4-(((4-((1S,4S)-2,5-diazabicyclo[2.2.1]heptan-2-yl)-6-cyclobutyl-7-(6-fluoro-5-methyl-1H-indazol-4-yl)-2-((1r,3S)-3-methoxycyclobutoxy)quinazolin-8-yl)oxy)methyl)phenyl)-1H-1,2,3-triazol-1-yl)-3-methylbutanoyl)-N-((1R,2S)-1-(4-(1-ethyl-1H-pyrazol-5-yl)phenyl)-2-hydroxypropyl)-4-hydroxypyrrolidine-2-carboxamide]	< 10 nM	< 10 nM
CCn1nccc1-c1ccc([C@H](CO)NC(=O)[C@@H]2C[C@@H](O)CN2C(=O)[C@H](C(C)C)n2cc(-c3ccc(COc4c(-c5c(C)c(F)cc6[nH]ncc56)c(C5CC5)cc5c(N6C[C@@H]7C[C@H]6CN7)nc(O[C@H]6C[C@H](OC)C6)nc45)cc3)nn2)cc1 [Example 74, (2S,4R)-1-((2S)-2-(4-(4-(((4-((1S,4S)-2,5-diazabicyclo[2.2.1]heptan-2-yl)-6-cyclopropyl-7-(6-fluoro-5-methyl-1H-indazol-4-yl)-2-((1r,3S)-3-methoxycyclobutoxy)quinazolin-8-yl)oxy)methyl)phenyl)-1H-1,2,3-triazol-1-yl)-3-methylbutanoyl)-N—((R)-1-(4-(1-ethyl-1H-pyrazol-5-yl)phenyl)-2-hydroxyethyl)-4-hydroxypyrrolidine-2-carboxamide]	< 10 nM	< 10 nM
CO[C@H]1C[C@@H](Oc2nc(N3C[C@@H]4C[C@H]3CN4)c3cc(C4CC4)c(-c4c(C)c(F)cc5[nH]ncc45)c(OCc4ccc(-c5cn([C@H](C(=O)N6C[C@H](O)C[C@H]6C(=O)N[C@@H](CO)c6ccc(-c7scnc7C)cc6)C(C)C)nn5)cc4)c3n2)C1 [Example 102, (2S,4R)-1-((2S)-2-(4-(4-(((4-((1S,4S)-2,5-diazabicyclo[2.2.1]heptan-2-yl)-6-cyclopropyl-7-(6-fluoro-5-methyl-1H-indazol-4-yl)-2-((1s,3R)-3-methoxycyclobutoxy)quinazolin-8-yl)oxy)methyl)phenyl)-1H-1,2,3-triazol-1-yl)-3-methylbutanoyl)-4-hydroxy-N—((R)-2-hydroxy-1-(4-(4-methylthiazol-5-yl)phenyl)ethyl)pyrrolidine-2-carboxamide]	< 10 nM	< 10 nM
